Results taken from US6437006B1, “Pharmaceutical carrier formulation” (American Cyanamid Company, priority 1999, dated 2002).

**Q.** With Cc1ccn(-c2ccc(C(=O)N3Cc4cccn4Cc4ccccc43)c(Cl)c2)n1 [Isomer A] as the compound, how does the melting point read?
**A.** 141 to 143 °C
